Test results taken from the supplement of paper PMC10307832.

How the values were obtained:
Assay in all cases: relative viability (nuclei count vs DMSO), 5 days (fraction); higher = more cells survive
Idelalisib + Foretinib = compound: CC[C@H](Nc1ncnc2[nH]cnc12)c1nc2cccc(F)c2c(=O)n1-c1ccccc1 [Idelalisib] + COc1cc2c(Oc3ccc(NC(=O)C4(C(=O)Nc5ccc(F)cc5)CC4)cc3F)ccnc2cc1OCCCN1CCOCC1 [Foretinib] (partner 0.25 µM)
Procedure, shortened: (§1)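 Relative viability equals treated-well nuclei counts divided by vehicle-well nuclei counts. Counts came from 4× images of lung cancer cell lines grown in 1536-well plates for 5 days after pin-tool dosing on the day after seeding. Dosing used one drug alone or a fixed anchor-drug dose plus five library-drug doses (not always all listed) in √10 steps, and values are medians of duplicate plates.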

Pemetrexed + Crizotinib = compound: Nc1nc2[nH]cc(CCc3ccc(C(=O)N[C@@H](CCC(=O)O)C(=O)O)cc3)c2c(=O)[nH]1 [Pemetrexed] + C[C@@H](Oc1cc(-c2cnn(C3CCNCC3)c2)cnc1N)c1c(Cl)ccc(F)c1Cl [Crizotinib] (partner 1 µM)
Procedure, shortened: as §1

Idelalisib + Navitoclax = compound: CC[C@H](Nc1ncnc2[nH]cnc12)c1nc2cccc(F)c2c(=O)n1-c1ccccc1 [Idelalisib] + CC1(C)CCC(c2ccc(Cl)cc2)=C(CN2CCN(c3ccc(C(=O)NS(=O)(=O)c4ccc(N[C@H](CCN5CCOCC5)CSc5ccccc5)c(S(=O)(=O)C(F)(F)F)c4)cc3)CC2)C1 [Navitoclax] (partner 0.5 µM)
Procedure, shortened: as §1

Pemetrexed + Decitabine = compound: Nc1nc2[nH]cc(CCc3ccc(C(=O)N[C@@H](CCC(=O)O)C(=O)O)cc3)c2c(=O)[nH]1 [Pemetrexed] + Nc1ncn([C@H]2C[C@H](O)[C@@H](CO)O2)c(=O)n1 [Decitabine] (partner 2 µM)
Procedure, shortened: as §1

Cell Line | relative viability (Idelalisib + Foretinib; first compound 0.04 µM) | relative viability (Idelalisib + Foretinib; first compound 0.1265 µM) | relative viability (Idelalisib + Foretinib; first compound 0.4 µM) | relative viability (Idelalisib + Foretinib; first compound 1.265 µM) | relative viability (Idelalisib + Foretinib; first compound 4 µM) | relative viability (Pemetrexed + Crizotinib; first compound 0.002 µM) | relative viability (Pemetrexed + Crizotinib; first compound 0.006325 µM) | relative viability (Pemetrexed + Crizotinib; first compound 0.02 µM) | relative viability (Pemetrexed + Crizotinib; first compound 0.06325 µM) | relative viability (Pemetrexed + Crizotinib; first compound 0.2 µM) | relative viability (Idelalisib + Navitoclax; first compound 0.04 µM) | relative viability (Idelalisib + Navitoclax; first compound 0.1265 µM) | relative viability (Idelalisib + Navitoclax; first compound 0.4 µM) | relative viability (Idelalisib + Navitoclax; first compound 1.265 µM) | relative viability (Idelalisib + Navitoclax; first compound 4 µM) | relative viability (Pemetrexed + Decitabine; first compound 0.002 µM) | relative viability (Pemetrexed + Decitabine; first compound 0.006325 µM) | relative viability (Pemetrexed + Decitabine; first compound 0.02 µM) | relative viability (Pemetrexed + Decitabine; first compound 0.06325 µM) | relative viability (Pemetrexed + Decitabine; first compound 0.2 µM)
NCI-H1944 | 1 | 0.877 | 0.752 | 0.804 | 0.759 | 0.911 | 1.02 | 1.19 | 1.11 | 1 | 1.03 | 1.02 | 1.07 | 0.923 | 0.841 | 0.378 | 0.37 | 0.405 | 0.427 | 0.458
HCC-827 | 1.1 | 0.971 | 1.04 | 1.05 | 0.915 | 0.856 | 1.03 | 0.944 | 0.888 | 0.779 | 1.06 | 1.05 | 1.03 | 1.03 | 0.964 | 0.264 | 0.341 | 0.409 | 0.214 | 0.305
COR-L23 | 1.12 | 1.02 | 0.982 | 1.08 | 0.898 | 0.589 | 0.631 | 0.636 | 0.26 | 0.14 | 1.07 | 0.965 | 1.05 | 1.11 | 1.02 | 0.419 | 0.465 | 0.554 | 0.225 | 0.188
NCI-H3122 | 0.963 | 0.939 | 1 | 0.982 | 0.836 | 0.275 | 0.261 | 0.261 | 0.244 | 0.233 | 1.07 | 1.04 | 1.02 | 0.995 | 0.961 | 0.452 | 0.379 | 0.413 | 0.417 | 0.305
NCI-H2170 | 0.952 | 1.05 | 0.947 | 1.03 | 0.947 | 1.3 | 1.03 | 1.1 | 1.2 | 1.09 | 0.665 | 0.613 | 0.524 | 0.598 | 0.509 | 0.436 | 0.48 | 0.458 | 0.462 | 0.459
BEN | 0.751 | 0.567 | 0.539 | 0.856 | 0.661 | 0.992 | 0.859 | 0.896 | 0.787 | 0.715 | 0.0556 | 0.0685 | 0.0581 | 0.0746 | 0.0521 | 0.657 | 0.767 | 0.813 | 0.668 | 0.719
NCI-H647 | 1.18 | 1.35 | – | 0.895 | 0.746 | – | 0.921 | 1.14 | 0.785 | 0.32 | 1.17 | 1.1 | 0.981 | 0.837 | 0.745 | 0.263 | 0.366 | 0.515 | 0.39 | 0.233
PC-14 | 1.05 | 0.988 | 0.933 | 0.995 | 0.968 | 0.86 | 0.888 | 0.838 | 0.709 | 0.207 | 0.987 | 1.1 | 0.953 | 1.14 | 1.02 | 0.211 | 0.217 | 0.301 | 0.0896 | 0.0739
HCC-78 | 0.612 | 0.594 | 0.462 | 0.528 | 0.434 | – | 0.304 | 0.337 | 0.25 | 0.197 | 0.762 | 0.648 | 0.682 | 0.797 | 0.505 | – | 0.685 | 0.777 | 0.324 | 0.307
NCI-H1666 | 0.825 | 1.07 | 0.961 | 1.01 | 0.947 | 1.08 | 0.9 | 0.986 | 0.865 | 0.635 | 0.892 | 0.928 | 0.835 | 0.804 | 0.69 | 0.637 | 0.724 | 0.712 | 0.594 | 0.612
COR-L 105 | 1.01 | 1.34 | 0.992 | 1.01 | 0.672 | 0.78 | 0.75 | 0.895 | 0.88 | 0.75 | 0.794 | 1.04 | 0.805 | 0.893 | 0.52 | 0.672 | 0.692 | 0.699 | 0.633 | 0.685
LU99A | 0.939 | 0.847 | 0.775 | 0.79 | 0.775 | 0.543 | 0.621 | 0.62 | 0.594 | 0.325 | 0.835 | 0.894 | 0.719 | 0.91 | 0.827 | 0.802 | 0.753 | 0.947 | 0.865 | 0.887
NCI-H596 | 0.95 | 0.885 | 0.671 | 0.909 | 0.681 | 0.854 | 0.967 | 1.09 | 0.78 | 0.665 | 1.18 | 0.931 | 0.881 | 0.973 | 0.892 | 0.996 | 1.03 | 0.972 | 0.839 | 0.553
201T | 1.09 | 1.07 | 0.741 | 1.11 | 0.993 | 0.941 | 1.03 | 1.05 | 1.07 | 0.999 | 1.17 | 1.13 | 1.25 | 1.24 | 1.1 | 0.712 | 0.803 | 0.808 | 0.849 | 0.85
HCC-15 | 1.09 | 1.02 | 0.975 | 1.18 | 0.94 | 0.747 | 0.824 | 0.883 | 0.775 | 0.473 | 0.692 | 0.712 | 0.67 | 0.699 | 0.591 | 0.483 | 0.604 | 0.684 | 0.406 | 0.191
